# Measurements published in PMC7156724, “Potent BRD4 inhibitor suppresses cancer cell-macrophage interaction” (Nature Communications, 2020).
# Several values for one entry are separate records, joined by “and”; a condition that tells them apart may be missing. Equal values may be shown once.
# Legend:
# A2780 tumors = assay: Orthotopic OC model with CSF1 overexpressing A2780 cells, NHWD-870 treatment; type: in vivo, mouse; set-up: Tumor weight (Fig.6k) / Ascitic fluid (Fig.6l): unit not given here
# Description: Fig. 6 CSF1/CSF1R signaling is critical for the tumor inhibitory effects of NHWD-870 and CSF1 induced ovarian cancer growth depends on macrophages. a Number of TAMs after treatment with the indicated concentration of CSF1 for 48 h. Data are presented as mean ± SEM from three independent experiments. b–d Schematics of the experiments (b). A2780 cells (pre-treated with DMSO or 100 nM NHWD-870 for 48 h) were seeded into the top chamber (transwell size: 0.4 μm), and TAMs (Mac, 40,000 cells per 24-well) in medium with PBS or 10 ng/ml CSF1 (c), or 50 ng/ml IgG or anti-CSF1R antibodies (d), were seeded into the bottom chamber. Shown are quantification of TAMs (c, d). Data are presented as mean ± SEM from three independent experiments. e Representative western blot analysis of A2780 cells stably transfected with CSF1 or empty vector (EV). Selected from three independent experiments. f Schematics of the animal experiments using an orthotopic mouse OC model, established by intraperitoneally injecting 1 × 10^6 (g–j) or 2 × 10^6 (k–m) human A2780 cells overexpressing CSF1 or control into female recipient nude mice. Mice were then treated with/without liposomal clodronate (LC) for 45 days (g–j) or treated with/without NHWD-870 (PO, QD, 3 mg/kg) for 37 days (k–m). g Increased mouse body weight was measured at the indicated time points (day 0-45 after LC treatment). h–j Net tumor weight (h), ascitic fluid volumes (i) tumor implantations in peritoneum, omentum and pevic cavity (j) were measured at day 45 from LC treatment. k–m Net tumor weight (k), ascitic fluid volumes (l) tumor implantations in peritoneum, omentum and pevic cavity (m) were measured at day 37 after NHWD-870 treatment. For g–m, data are presented as mean ± SEM from five different mice. p values were calculated using two-tailed, unpaired t tests in this figure. n.s, not significant; *p < 0.05; **p < 0.01; and ***p < 0.001. Source data are provided as a Source Data file.
# 4–6 weeks old female BALB/c nude mice were used for most experiments, with the exception of 6–8 weeks old female C57BL/6 mice were used for B16F10 experiments, and 6–8 weeks old male BALB/c nude mice and SD rats were used for pharmacokinetic experiments. All animals were purchased from Shanghai SIPPR-Bk Lab Animal Co., Ltd. All animals were housed under a regimen of 12 h light/12 h dark cycles and specific pathogen-free conditions. 5×10^6 NCI-H526, ES-2, MDA-MB231, A2780, A375, B16F10, and TMD-8 cells (0.1 ml) were injected subcutaneously into female nude mice. The melanoma patient-derived xenograft model was derived from a human melanoma sample (BRAF, NARS and NF1 wild type, and p53 mutant) removed from a patient in Xiangya Hospital. Surgically removed tumor fragments were implanted subcutaneously into female NSG mice. When the tumors grew to ~1000 mm^3, they were harvested and cryopreserved or immediately re-implanted for expansion or experiments. Mouse body weight and tumor sizes were measured every 3 days. Once the tumors grew to 150–200 mm^3, mice were treated with the compounds as described in the Figures. 1 × 10^6 A2780 cells (1 ml) were injected into the abdominal cavity of nude mice. Ascitic volume and tumor weight were measured by an electronic balance. All the procedures were evaluated and approved by the Institutional Animal Care and Use Committee of Central South University and Yale University.
# [1] = Metabolic stability assay, monkey liver microsomes; conditions: for Remaining in Monkey liver microsomes (Sup Fig.6d): in % (unit assumed)
# Description: 7. Metabolic stability assay. The metabolic profile of NHWD-870 was determined using mouse, rat, dog, monkey, and human liver microsomes using the protocols […]
# No. Compound ID Exat Mass Stock Conc.
# 1) 100 mM potassium phosphate buffer, PH7.4; 2) 10mM MgCI2
# 1) Intermediate solution: Dilute 5 μL of compound or control from stock solution (10 mM) with 45 uL DMSO,then mixed with 450 μL 1:1 Methanol/Water (Conc.: 10 0 […]
# 2) Working solution: Dilute 50 μL from intermediate solution with 450 μL 100 mM potassium phosphate buffer (Conc.: 10 μM, 4.5%MeOH)
# (3) NADPH regenerating system (final Isocitric dehydrogenase conc.= 1 unit/mL at […]
# 1) β-Nicotinamide adenine dinucleotide phosphate, Vendor: sigma Cat. No. N0505
# 2) Isocitric acid, Vendor: Sigma Cat. No. I1252
# 3) Isocitric dehydrogenase, Vendor: sigma Cat. No. I2002
# (4) Liver microsome solution preparation (final concentration o f 0.5 mg protein/mL) […]
# Cold ACN including 100 ng/mL Tolbutamide and 100 ng/mL Labetalol as internal […]
# 1) Add 10 μL compound or control working solution/well to all plates (T0, T5, T10, T20, T30, T60, NCF60) except matrix blank.
# 2) Dispense 680 μL/well microsome solution to 96-well plate as reserv oir according to […]
# plate map. Then add 80 μL/well to every plate by Apricot, incubate the mixture of microsome solution and compound at 37℃ for about 10 min.
# 3) Add 10 μL 100 mM potassium phosphate buffer/well to NCF60, incubate at 37℃, […]
# 4) After pre-warming, dispense 90 μL/well NADPH regenerating system to 96-well plate as reservoir according to the plate map. Then add 10 μL/well to every plate by Apricot to start reaction.
# 5) Incubate at 37℃, start timer 2.
# 6) Add 300 (μL/well) stop solution (cold in 4℃, including 100 ng/mL Tolbutamide and 100 ng/mL Labetalol) to terminate the reaction.
# 7) The sampling plates are shaked for approx 10 min.
# 8) Samples are centrifuged at 4000 rpm for 20 min under 4℃.
# 9) While centrifuging, load 8×new 96-well plate with 300 μL HPLC water, then transfer 100 μL supernatant, mixed for LC/MS/MS.
# Use equation of first order kinetics to calculate t1/2 and Clin t(mic): […]
# Equation of first order kinetics: […]
# [2] = CSF-1 overexpressing A2780 cells
# [3] = monkey, liver microsomes, pH 7.4
smiles,measurement,setting,value
Cc1nnn(C)c1-c1cnc2c3c4cnn(C)c4ccc3n([C@H](c3ccccc3)C3CCOCC3)c2c1 [NHWD-870],Ascitic fluid (Fig.6l),A2780 tumors; [2],2.5 and 3.8 and 4.1 and 3.5 and 2.1
same,"Tumor nodules, Omentum (Fig.6m)",A2780 tumors; [2],8 and 13 and 10 and 16 and 12
same,"Tumor nodules, Pelvic (Fig.6m)",A2780 tumors; [2],45 and 54 and 36 and 64 and 51
same,Tumor weight (Fig.6k),A2780 tumors; [2],375 and 345 and 367 and 276 and 305
same,tumor inhibitory effects on CSF1 overexpressing A2780 tumors,"A2780 tumors; PO, QD, 3 mg/kg, 37 days",strongly mitigated the tumor inhibitory effects
same,Remaining (T=60min),[1]; monkey liver microsomes,25.7%
same,Remaining (*NCF=60min),"[1]; monkey liver microsomes, no cofactor",112.0%
same,CLint scaled at 1 µM,[1]; [3],62.4 mL/min/kg
same,half-life at 1 µM,[1]; [3],30 min
same,microsomal CLint at 1 µM,"[1]; monkey, microsomes, pH 7.4",46.2 µL/min/mg
same,Remaining in Monkey liver microsomes (Sup Fig.6d),[1]; time 0,100
same,Remaining in Monkey liver microsomes (Sup Fig.6d),[1]; time 5,73.787
same,Remaining in Monkey liver microsomes (Sup Fig.6d),[1]; time 10,48.901
same,Remaining in Monkey liver microsomes (Sup Fig.6d),[1]; time 20,36.72
same,Remaining in Monkey liver microsomes (Sup Fig.6d),[1]; time 30,26.708
same,Remaining in Monkey liver microsomes (Sup Fig.6d),[1]; time 60,12.364
